Test results as given in patent US5093231A, “Substrate composition for alkaline phosphatase and method for assay using same” (Becton, Dickinson and Company, priority 1991, dated 1992).

Experiments:
[1] = cited from earlier work
[2] = Accelerated stability of levamisole (and its p-bromo analogue) in various buffers; functional amount measured by inhibition of bovine liver AP; settings: pH 9.8
Method: (§1) Various buffers were prepared at 100 mM concentrations, containing 1 mM magnesium chloride, and adjusted to pH 9.8. […] (accelerated decomposition study). […] Bovine liver AP was added and the reaction kinetics were followed at 405 nm.

[3] = tested on: bovine liver alkaline phosphatase; assay: as above; settings: for Percent of Functional Levamisole Remaining: Day 0
Method: as §1

AP from the intestine = settings: Van Belle, Biochim. et Biophys. Acta., 289, 158 (1972); cited from earlier work
[4] = tested on: bovine liver alkaline phosphatase; assay: Potency of the p-bromo analogue relative to levamisole as AP inhibitor; assay type: biochemical

## c1ccc([C@H]2CN3CCSC3=N2)cc1 [levamisole, (-)2,3,5,6-tetrahydro-6-phenylimidazo[1,2-b]thiazole]
[1]; elevated temperature, Dickinson et al., Analyst, 96, 248 (1971)
  decomposition rate at pH 7.9 relative to pH 2: 70 times
[1]; in solution
  pH of solution at which levamisole hydrolyzes: ≥ 4
[2]; amp buffer
  remaining at 72 h, 1000 µM: 118%
  remaining at 216 h, 1000 µM: 107%
  remaining at 408 h, 1000 µM: 87.1%
[2]; ampd buffer
  remaining at 72 h, 1000 µM: 110%
  remaining at 216 h, 1000 µM: 90.2%
  remaining at 408 h, 1000 µM: 71.7%
[2]; carbonate buffer
  remaining at 72 h, 1000 µM: 63.8%
  remaining at 216 h, 1000 µM: 32.1%
  remaining at 408 h, 1000 µM: 13.7%
[2]; diethanolamine buffer
  remaining at 72 h, 1000 µM: 79.8%
  remaining at 216 h, 1000 µM: 9.12%
  remaining at 408 h, 1000 µM: 0.31%
[2]; glycine buffer
  remaining at 72 h, 1000 µM: 0.08%
  remaining at 216 h, 1000 µM: 0.02%
  remaining at 408 h, 1000 µM: 0%
[2]; triethanolamine buffer
  remaining at 72 h, 1000 µM: 94.4%
  remaining at 216 h, 1000 µM: 66.6%
  remaining at 408 h, 1000 µM: 37.6%
[3]; AMP buffer 100 mM, 1 mM magnesium chloride, pH 9.8, 45° C., 1 mM levamisole
  Percent of Functional Levamisole Remaining: 100%
[3]; AMPD buffer 100 mM, 1 mM magnesium chloride, pH 9.8, 45° C., 1 mM levamisole
  Percent of Functional Levamisole Remaining: 100%
[3]; Carbonate buffer 100 mM, 1 mM magnesium chloride, pH 9.8, 45° C., 1 mM levamisole
  Percent of Functional Levamisole Remaining: 100%
[3]; Diethanolamine buffer 100 mM, 1 mM magnesium chloride, pH 9.8, 45° C., 1 mM levamisole
  Percent of Functional Levamisole Remaining: 100%
[3]; Glycine buffer 100 mM, 1 mM magnesium chloride, pH 9.8, 45° C., 1 mM levamisole
  Percent of Functional Levamisole Remaining: 100%
[3]; Triethanolamine buffer 100 mM, 1 mM magnesium chloride, pH 9.8, 45° C., 1 mM levamisole
  Percent of Functional Levamisole Remaining: 100%
[3]; pH 9.8, 45° C., summary of Table I
  stability of levamisole compared between buffers: substantially greater in AMPD and particularly in AMP than in other buffers
AP from the intestine
  fold less potent toward AP from the intestine than toward AP from several mammalian tissue types: approximately 100 fold

## Brc1ccc([C@H]2CN3CCSC3=N2)cc1 [p-bromolevamisole]
[4]
  fold more potent than levamisole: approximately 10 fold
[2]; amp buffer
  remaining at 72 h, 100 µM: 55.4%
  remaining at 216 h, 100 µM: 23.9%
  remaining at 408 h, 100 µM: 9.6%
[2]; ampd buffer
  remaining at 72 h, 100 µM: 74%
  remaining at 216 h, 100 µM: 37.3%
  remaining at 408 h, 100 µM: 18.5%
[2]; carbonate buffer
  remaining at 72 h, 100 µM: 44.4%
  remaining at 216 h, 100 µM: 10.8%
  remaining at 408 h, 100 µM: 2.62%
[2]; diethanolamine buffer
  remaining at 72 h, 100 µM: 33.6%
  remaining at 216 h, 100 µM: 1.3%
  remaining at 408 h, 100 µM: 0.53%
[2]; glycine buffer
  remaining at 72 h, 100 µM: 0.29%
  remaining at 216 h, 100 µM: 0.25%
  remaining at 408 h, 100 µM: 0%
[2]; triethanolamine buffer
  remaining at 72 h, 100 µM: 59%
  remaining at 216 h, 100 µM: 22.1%
  remaining at 408 h, 100 µM: 7.86%
[3]; AMP buffer, as in Example I (pH 9.8, 45° C.), 0.1 mM p-bromolevamisole
  Percent of Functional Levamisole Remaining: 100%
[3]; AMPD buffer, as in Example I (pH 9.8, 45° C.), 0.1 mM p-bromolevamisole
  Percent of Functional Levamisole Remaining: 100%
[3]; Carbonate buffer, as in Example I (pH 9.8, 45° C.), 0.1 mM p-bromolevamisole
  Percent of Functional Levamisole Remaining: 100%
[3]; Diethanolamine buffer, as in Example I (pH 9.8, 45° C.), 0.1 mM p-bromolevamisole
  Percent of Functional Levamisole Remaining: 100%
[3]; Glycine buffer, as in Example I (pH 9.8, 45° C.), 0.1 mM p-bromolevamisole
  Percent of Functional Levamisole Remaining: 100%
[3]; Triethanolamine buffer, as in Example I (pH 9.8, 45° C.), 0.1 mM p-bromolevamisole
  Percent of Functional Levamisole Remaining: 100%
[3]; pH 9.8, 45° C., summary of Table II
  decomposition compared with the parent compound levamisole: quite a bit faster than the parent compound
